Data as given in patent publication US20100317078A1, “METHODS TO IMPROVE ALCOHOL TOLERANCE OF MICROORGANISMS” (Cornell Research Foundation Inc, priority 2007, published 2010).
“And” between values parts separate entries of the source, which are not always exact repeats. Identical values can stand only once. Like-named read-outs stand apart in the source and are kept apart here.

Experiments:
[1] = test system: S. cerevisiae mutant derivative MVY#2015 (opi1)
Description: (§1) The method for examining ethanol tolerance using a plating technique was adapted from Chi et al. (Chi et al., “Role of Phosphatidylinositol (PI) in Ethanol Production and Ethanol Tolerance By a High Ethanol Producing Yeast,” J Industrial Microbiology Biotechnology 22:58-63 (1999), which is hereby incorporated by reference in its entirety). Inocula of wild type and opi1 yeast strains were prepared as previously described. Cells were centrifuged at 4,500 rpm for 5 min at 4° C. (Sorvall Legend R T, Kendro Laboratory Products, Asheville, N.C.), and the supernatant was removed. Cells were washed twice with −I media, centrifuged at 4,500 rpm for 5 min, and the resulting pellet was stored at 4° C.
(§2) The cell pellets were re-suspended in inositol-free media and the OD was measured. Cells were inoculated into a 500-mL polycarbonate Erlenmeyer flask containing 110-mL of synthetic media either containing (+I) or lacking inositol (−I) at a final OD of 0.1. The cell cultures were placed in an incubator-shaker at 30° C. and 250 rpm until the OD reached 0.5.
(§3) Two volumes of cell suspension containing 1×10^8 cells—previously determined by cell counting with a hemacytometer (Bright-Line Hemacytometer, Reichert Scientific Instruments, Buffalo, N.Y.)—were removed from the flasks and placed in separate sterile 50-mL centrifuge tubes. Cells were centrifuged at 4,500 rpm for 5 min at 4° C. and the supernatant was removed. Cells were washed twice with either −I or +I media as previously described, and the resulting supernatants were discarded. Ten mL of ethanol (10, 15 or 18% (v/v)) was added to one of the 50-mL centrifuge tubes containing a washed cell pellet and this represented the “shocked culture.” As a control, 10-mL of sterile water was added to the second 50-mL tube containing a washed cell pellet. Two 25-μl aliquots of the control culture were removed and plated on YPD plates, representing time zero of the experiment. Cell suspensions were transferred from 50-mL centrifuge tubes to 25-mL sterile glass tubes. The glass tubes were placed in an incubator-shaker at 30° C. and 250 rpm.
(§4) Samples of both the shocked and control cultures were taken every hour for 4 hr. Shocked cells were diluted in ethanol (10, 15, or 18%, consistent with the concentration of the shocked culture) at dilution factor of 1:1000. Control cells were diluted in sterile water at the same dilution factor. Duplicate 25-μl aliquots were plated on YPD plates for each sample of either shocked or control cell cultures over the 4 hr time course. All plates were placed in a 30° C. incubator. Colonies were counted on all plates after 48 and 72 hr. Duplicate plate counts were averaged. Ethanol tolerance of each strain, in terms of cell viability, in either +I or −I media over a range of ethanol concentrations, was expressed as a ratio of the number of colonies counted in the shocked culture at 72 hr to the number of colonies counted in the control culture at 72 hr. Cell viability in the control culture at time-zero of the experiment was assumed to be 100%.
(§5) Ethanol tolerance of each strain was calculated, in terms of cell viability (CV), using the number of colony forming units (CFUs) in the shocked and control cultures after 72 hr of incubation using the following equation:
(§6) Cell viability in the control culture at time-zero of the experiment was assumed to be 100%. All ethanol concentrations are volume-volume percentages (v/v), while all glucose concentrations are in weight-volume percentages (w/v).
(§7) To model the data presented in FIGS. 1 and 2 and to estimate specific death rates a simple first-order kinetic model was fitted to the data using the nonlinear parameter estimation tool in KaleidaGraph (Synergy Software, Reading, Pa.):
(§8) d=specific death rate, (hr^−1)

[2] = test system: S. cerevisiae wild type diploid MVY#2008; conditions: for Specific Death Rates in 2% Glucose (d): WT
Description: as §1, §2, §3, §4, §5, §6, §7, §8

[3] = test system: S. cerevisiae mutant derivative MVY#2013 (opi1); conditions: for increase in μ value for opi1 over wild type: 5% ethanol; for Specific Growth Rates in 2% Glucose (μ) / Specific Growth Rates in 12% Glucose (μ): 5% Ethanol
Description: (§9) The method for examining ethanol tolerance by profiling yeast growth was adapted from You et al. (You et al., “Ethanol Tolerance in the Yeast Saccharomyces cerevisiae is Dependent on Cellular Oleic Acid Content,” Applied Environ Microbiology 69:1499-1503 (2003), which is hereby incorporated by reference in its entirety). Inocula of wildtype and opi1 yeast strains were prepared as previously described (see Plating Assays) except a Marathon 21K/BR bench top centrifuge (Fisher Scientific, Inc., Hampton, N.H.) was used. The cell pellet was suspended in —I media and the OD was measured by pipetting […] of the cell suspension into a clean well of a 96 well plate and reading OD in a plate reader (Synergy HT Multidetection Microplate Reader, Bio-Tek Instruments, Inc., Winooski, Vt.).
(§10) Cells were inoculated into 125-mL polycarbonate Erlenmeyer flasks with 50-mL of +I or −I containing either 2% or 12% glucose and 0 or 5% ethanol, at a final OD of 0.05. Each media type was performed in triplicate for both yeast strains. Flasks were placed in an incubator-shaker at 30° C. and 250 rpm (Gyratory Waterbath Shaker, New Brunswick Scientific, Edison, N.J.). The OD of each culture was measured over a period of at least 36 hr or until the cell density had stabilized for a period of no less than 12 hr. Triplicate OD measurements were performed for each sample and measurements were averaged.
(§11) Specific growth rate, or the growth rate over time per unit of biomass, was calculated in order to provide a quantitative assessment of the impact of experimental conditions on growth rate. Specific growth rates were estimated for both yeast strains for all of the conditions mentioned using the following first order kinetic equation:
(§12) μ=specific growth rate, (hr^−1)
(§13) This equation was fit to the data presented in FIGS. 3 through 6 using the nonlinear parameter estimation tool in KaleidaGraph.

[4] = test system: S. cerevisiae wild type haploid MVY#19; conditions: WT, 5% Ethanol
Description: as §9, §10, §11, §12, §13

Question: `CCO` [Ethanol, ethanol] was tested. Which “d of opi1 in 18% ethanol, lower than d of wild type in 15% ethanol” value ([1]; both grown in +I media) did it give?
Answer: 38%

Question: And the “specific death rate d” value ([1]; opi1, 10% ethanol, with or without inositol in growth media)?
Answer: less than 0.1 hr^−1

Question: What about the “increase of d after growth in −I media in comparison to +I media” value ([1]; opi1, 15% ethanol) of the same compound?
Answer: 11%

Question: What about the “Specific Death Rates in 2% Glucose (d)” value ([1]; opi1, grown in I+ media, shocked in 10% Ethanol) of the same compound?
Answer: 0.036 h⁻¹

Question: And the “Specific Death Rates in 2% Glucose (d)” value ([1]; opi1, grown in I+ media, shocked in 15% Ethanol)?
Answer: 0.71 h⁻¹

Question: And the “Specific Death Rates in 2% Glucose (d)” value ([1]; opi1, grown in I+ media, shocked in 18% Ethanol)?
Answer: 1.61 h⁻¹

Question: What about the “Specific Death Rates in 2% Glucose (d)” value ([1]; opi1, grown in I− media, shocked in 10% Ethanol) of the same compound?
Answer: 0.006 h⁻¹

Question: And the “Specific Death Rates in 2% Glucose (d)” value ([1]; opi1, grown in I− media, shocked in 15% Ethanol)?
Answer: 0.79 h⁻¹

Question: And the “d of wild type cells relative to opi1 cells” value ([2]; 15% ethanol after growth in +I media)?
Answer: over 3.5 times

Question: And the “d of wild type cells relative to opi1 cells” value ([2]; 15% ethanol after growth in −I media)?
Answer: nearly four times

Question: What about the “Specific Death Rates in 2% Glucose (d)” value ([2]; grown in I+ media, shocked in 10% Ethanol) of the same compound?
Answer: 0.084 h⁻¹

Question: What about the “Specific Death Rates in 2% Glucose (d)” value ([2]; grown in I+ media, shocked in 15% Ethanol) of the same compound?
Answer: 2.61 h⁻¹

Question: What about the “Specific Death Rates in 2% Glucose (d)” value ([2]; grown in I+ media, shocked in 15% Ethanol, listed as ethanol) of the same compound?
Answer: 2.61 h⁻¹ and 3.14 h⁻¹

Question: What about the “Specific Death Rates in 2% Glucose (d)” value ([2]; grown in I− media, shocked in 10% Ethanol) of the same compound?
Answer: 0.049 h⁻¹

Question: And the “Specific Death Rates in 2% Glucose (d)” value ([2]; grown in I− media, shocked in 15% Ethanol)?
Answer: 3.14 h⁻¹

Question: What about the “Specific Death Rates in 2% Glucose (d)” value ([2]; grown in I− media, shocked in 15% Ethanol, listed as ethanol) of the same compound?
Answer: 3.14 h⁻¹ and 2.61 h⁻¹

Question: And the “specific death rate d” value ([2]; wild type, 10% ethanol, with or without inositol in growth media)?
Answer: less than 0.1 hr^−1

Question: And the “d after growth in −I media higher than after growth in +I” value ([2]; wild type, 15% ethanol)?
Answer: 20%

Question: What about the “increase in μ value for opi1 over wild type” value (shortened to “increase in μ value for opi1”) ([3]; +I media, 2% glucose) of the same compound?
Answer: 5%

Question: And the “increase in μ value for opi1” value ([3]; +I media, 12% glucose)?
Answer: 16%

Question: What about the “increase in μ value for opi1” value ([3]; −I media, 2% glucose) of the same compound?
Answer: 57%

Question: And the “increase in μ value for opi1” value ([3]; −I media, 12% glucose)?
Answer: 33%

Question: What about the “Specific Growth Rates in 2% Glucose (μ)” value ([3]; opi1, I+ media, 2% glucose) of the same compound?
Answer: 0.118 ± 0.012 h⁻¹

Question: And the “Specific Growth Rates in 12% Glucose (μ)” value ([3]; opi1, I+ media, 12% glucose)?
Answer: 0.127 ± 0.007 h⁻¹

Question: What about the “Specific Growth Rates in 2% Glucose (μ)” value ([3]; opi1, I− media, 2% glucose) of the same compound?
Answer: 0.102 ± 0.011 h⁻¹

Question: What about the “Specific Growth Rates in 12% Glucose (μ)” value ([3]; opi1, I− media, 12% glucose) of the same compound?
Answer: 0.076 ± 0.010 h⁻¹

Question: And the “Specific Growth Rates in 2% Glucose (μ)” value ([4]; I+ media)?
Answer: 0.111 ± 0.007 h⁻¹

Question: What about the “Specific Growth Rates in 12% Glucose (μ)” value ([4]; I+ media) of the same compound?
Answer: 0.109 ± 0.010 h⁻¹

Question: And the “Specific Growth Rates in 2% Glucose (μ)” value ([4]; I− media)?
Answer: 0.065 ± 0.004 h⁻¹

Question: What about the “Specific Growth Rates in 12% Glucose (μ)” value ([4]; I− media) of the same compound?
Answer: 0.057 ± 0.007 h⁻¹
